# Active and inactive are the calls of the source. The rule behind the calls is not given here.
# System: rodent carcinogenicity bioassays, tumor incidence
# Assay: CCRIS carcinogenicity studies
# Conditions: Dose: 0
# Procedure, shortened: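 NCI-built, expert-reviewed records of carcinogenicity and related test outcomes (mutagenicity, tumor promotion/inhibition) compiled from published and report sources, historical span 1985-2011, not updated.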
smiles,measurement,setting,value
O=S(=O)(O)c1ccc2c(N=Nc3ccc(S(=O)(=O)O)c4ccccc34)c(O)c(S(=O)(=O)O)cc2c1,carcinogen call,"Species: MOUSE, Strain/Sex: SWISS-WEBSTER/FEMALE, Route: DERMAL, 1% IN 0.1 ML DISTILLED WATER 1/WK FOR 19.5 MO (STUDY DURATION: 19.5 MO)",inactive; negative
same,carcinogen call,"Species: MOUSE, Strain/Sex: SWISS-WEBSTER/MALE, Route: DERMAL, 1% IN 0.1 ML DISTILLED WATER 1/WK FOR 19.5 MO (STUDY DURATION: 19.5 MO)",inactive; negative
same,carcinogen call,"Species: RAT, Strain/Sex: WISTAR/FEMALE, Route: ORAL, 50, 250, 1250 MG/KG IN THE DIET TO PUPS OF PARENTS EXPOSED TO THE SAME DOSE LEVELS FOR 60 D PRIOR TO MATING AND CONTI, 50, 250, 1250 MG/KG IN THE DIET TO PUPS OF PARENTS EXPOSED TO THE SAME DOSE LEVELS FOR 60 D PRIOR TO MATING AND CONTI",inactive; negative
same,carcinogen call,"Species: RAT, Strain/Sex: WISTAR/MALE, Route: ORAL, 50, 250, 1250 MG/KG IN THE DIET TO PUPS OF PARENTS EXPOSED TO THE SAME DOSE LEVELS FOR 60 D PRIOR TO MATING AND CONTI, 50, 250, 1250 MG/KG IN THE DIET TO PUPS OF PARENTS EXPOSED TO THE SAME DOSE LEVELS FOR 60 D PRIOR TO MATING AND CONTI",inactive; negative
C[C@H]([C@H](O)CCC(C)(C)O)[C@H]1CC[C@@]2(O)C3=CC(=O)[C@@H]4C[C@@H](O)[C@@H](O)C[C@]4(C)[C@H]3CC[C@]12C,carcinogen call,"Species: MOUSE, Strain/Sex: SWISS/FEMALE, Route: ORAL, 3 PPM/25 G BW IN DIET FOR 22 MO (STUDY DURATION: 22 MO), Tumor Site: Type of Lesion: MAMMARY GLAND: TUMOR, LUNG: TUMOR",active; positive
same,carcinogen call,"Species: MOUSE, Strain/Sex: SWISS/MALE, Route: ORAL, 3 PPM/25 G BW IN DIET FOR 22 MO (STUDY DURATION: 22 MO), Tumor Site: Type of Lesion: LUNG: TUMOR",active; positive
O=C1C(O)N=C(c2ccccc2F)c2cc(Cl)ccc2N1CCO (configuration not stated),carcinogen call,"Species: RAT, Strain/Sex: SPRAGUE-DAWLEY/FEMALE, Route: ORAL, 3, 10, 30 MG/KG IN THE DIET FOR 104 WK (STUDY DURATION: 104 WK), 3, 10, 30 MG/KG IN THE DIET FOR 104 WK (STUDY DURATION: 104 WK)",inactive; negative
same,carcinogen call,"Species: RAT, Strain/Sex: SPRAGUE-DAWLEY/MALE, Route: ORAL, 3, 10, 30 MG/KG IN THE DIET FOR 104 WK (STUDY DURATION: 104 WK), 3, 10, 30 MG/KG IN THE DIET FOR 104 WK (STUDY DURATION: 104 WK)",inactive; negative
C=CCOC(=O)c1ccccc1C(=O)OCC=C,carcinogen call,"Species: MOUSE, Strain/Sex: B6C3F1/FEMALE, Route: GAVAGE, 150, 300 MG/KG IN CORN OIL FOR 5 D/WK FOR 103 WK (STUDY DURATION: 103 WK), 150, 300 MG/KG IN CORN OIL FOR 5 D/WK FOR 103 WK (STUDY DURATION: 103 WK), Tumor Site: Type of Lesion: FORESTOMACH: SQUAMOUS CELL PAPILLOMA",equivocal
same,carcinogen call,"Species: MOUSE, Strain/Sex: B6C3F1/MALE, Route: GAVAGE, 150, 300 MG/KG IN CORN OIL FOR 5 D/WK FOR 103 WK (STUDY DURATION: 103 WK), 150, 300 MG/KG IN CORN OIL FOR 5 D/WK FOR 103 WK (STUDY DURATION: 103 WK), Tumor Site: Type of Lesion: FORESTOMACH: SQUAMOUS CELL PAPILLOMA, HEMATOPOIETIC SYSTEM: LYMPHOMA",equivocal
same,carcinogen call,"Species: RAT, Strain/Sex: F344/FEMALE, Route: GAVAGE, 50, 100 MG/KG IN CORN OIL 5 D/WK FOR 103 WK (STUDY DURATION: 105 WK), 50, 100 MG/KG IN CORN OIL 5 D/WK FOR 103 WK (STUDY DURATION: 105 WK), Tumor Site: Type of Lesion: HEMATOPOIETIC SYSTEM: MONONUCLEAR CELL LEUKEMIA",equivocal
same,carcinogen call,"Species: RAT, Strain/Sex: F344/MALE, Route: GAVAGE, 50, 100 MG/KG IN CORN OIL 5 D/WK FOR 103 WK (STUDY DURATION: 105 WK), 50, 100 MG/KG IN CORN OIL 5 D/WK FOR 103 WK (STUDY DURATION: 105 WK)",inactive; negative
O=[N+]([O-])c1ccc(OC2CO2)cc1 (configuration not stated),carcinogen call,"Species: MOUSE, Strain/Sex: B6C3F1/MALE, Route: INTRAPERITONEAL, 60 NMOL/G BW IN 10 µL TRIOCTANOIN ONCE (STUDY DURATION: 10 MO), Tumor Site: Type of Lesion: LIVER: HEPATOMA",active; positive
C[C@@H]1O[C@@H](OC[C@H]2O[C@@H](Oc3cc4c(O)cc(O)cc4[o+]c3-c3ccc(O)c(O)c3)[C@H](O)[C@@H](O)[C@@H]2O)[C@H](O)[C@H](O)[C@H]1O,carcinogen call,"Species: RAT, Strain/Sex: WISTAR/FEMALE, Route: ORAL, 1.7, 4.1 G/KG/D IN DIET FOR 2 YR (STUDY DURATION: 2 YR), 1.7, 4.1 G/KG/D IN DIET FOR 2 YR (STUDY DURATION: 2 YR)",inactive; negative
same,carcinogen call,"Species: RAT, Strain/Sex: WISTAR/MALE, Route: ORAL, 1.5, 3.7 G/KG/D DIET FOR 2 YR (STUDY DURATION: 2 YR), 1.5, 3.7 G/KG/D DIET FOR 2 YR (STUDY DURATION: 2 YR)",inactive; negative
CC1(C)[C@H](C(=O)O[C@H](C#N)c2cccc(Oc3ccccc3)c2)[C@@H]1C(Br)C(Br)(Br)Br (some centres not stated),carcinogen call,"Species: Mouse, Strain/Sex: Not reported by DPR/Female (60-80/Group), Route: Gavage, 0.75, 3.0, 10.0 mg/kg/day in corn oil for 104 wk, 0.75, 3.0, 10.0 mg/kg/day in corn oil for 104 wk",inactive; negative
same,carcinogen call,"Species: Mouse, Strain/Sex: Not reported by DPR/Male (60-80/Group), Route: Gavage, 0.75, 3.0, 10.0 mg/kg/day in corn oil for 104 wk, 0.75, 3.0, 10.0 mg/kg/day in corn oil for 104 wk",inactive; negative
same,carcinogen call,"Species: Rat, Strain/Sex: Not reported by DPR/Female (60-80/Group), Route: Gavage, 0.75, 3.0, 12.0 mg/kg/day in corn oil for 104 wk, 0.75, 3.0, 12.0 mg/kg/day in corn oil for 104 wk",inactive; negative
same,carcinogen call,"Species: Rat, Strain/Sex: Not reported by DPR/Male (60-80/Group), Route: Gavage, 0.75, 3.0, 12.0 mg/kg/day in corn oil for 104 wk, 0.75, 3.0, 12.0 mg/kg/day in corn oil for 104 wk",inactive; negative
O=[N+]([O-])c1cccc2c1ccc1c3ccccc3ccc21,carcinogen call,"Species: MOUSE, Strain/Sex: ICR/FEMALE, Route: INTRAPERITONEAL, 100 NMOL (TOTAL DOSE) ADMINISTERED IN 3 SUBDOSES OF 1/7, 2/7, AND 4/7 ON DAYS 1, 8 AND 15 OF LIFE, RESPECTIVELY (STUD",inactive; negative
same,carcinogen call,"Species: MOUSE, Strain/Sex: ICR/MALE, Route: INTRAPERITONEAL, 100 NMOL (TOTAL DOSE) ADMINISTERED IN 3 SUBDOSES OF 1/7, 2/7, AND 4/7 ON DAYS 1, 8 AND 15 OF LIFE, RESPECTIVELY (STUD",inactive; negative
CCSC(=O)N(CC)C1CCCCC1,carcinogen call,"Species: Mouse, Strain/Sex: C57 BL/10JfCD-1/Alpk/Female (50/group), Route: Oral, 300, 1,000, 3,000 ppm of 98.1% pure cycloate in feed for 18 mo, 300, 1,000, 3,000 ppm of 98.1% pure cycloate in feed for 18 mo",inactive; negative
same,carcinogen call,"Species: Mouse, Strain/Sex: C57 BL/10JfCD-1/Alpk/Male (50/group), Route: Oral, 300, 1,000, 3,000 ppm of 98.1% pure cycloate in feed for 18 mo, 300, 1,000, 3,000 ppm of 98.1% pure cycloate in feed for 18 mo",inactive; negative
CC(C)CCCCCCOC(=O)c1ccccc1C(=O)OCCCCCCC(C)C,carcinogen call,"Species: RAT, Strain/Sex: F344/FEMALE, Route: ORAL, 0.03, 0.3, 0.6% IN DIET FOR DURATION OF STUDY (STUDY DURATION: 24 MO), 0.03, 0.3, 0.6% IN DIET FOR DURATION OF STUDY (STUDY DURATION: 24 MO)",inactive; negative
same,carcinogen call,"Species: RAT, Strain/Sex: F344/MALE, Route: ORAL, 0.03, 0.3, 0.6% IN DIET FOR DURATION OF STUDY (STUDY DURATION: 24 MO), 0.03, 0.3, 0.6% IN DIET FOR DURATION OF STUDY (STUDY DURATION: 24 MO)",inactive; negative
CN(C)c1ccc(C(=C2C=CC(=[N+](C)C)C=C2)c2c(O)c(S(=O)(=O)[O-])cc3cc(S(=O)(=O)O)ccc23)cc1,carcinogen call,"Species: MOUSE, Strain/Sex: CD-1/FEMALE, Route: ORAL, 0.033, 0.33, 0.66% IN DIET TO PUPS OF PARENTS GIVEN THE SAME DIETARY DOSES FOR 9 WK PRIOR TO MATING. FROM 2 TO 5 WK O, 0.033, 0.33, 0.66% IN DIET TO PUPS OF PARENTS GIVEN THE SAME DIETARY DOSES FOR 9 WK PRIOR TO MATING. FROM 2 TO 5 WK O",inactive; negative
same,carcinogen call,"Species: MOUSE, Strain/Sex: CD-1/MALE, Route: ORAL, 0.033, 0.33, 0.66% IN DIET TO PUPS OF PARENTS GIVEN THE SAME DIETARY DOSES FOR 9 WK PRIOR TO MATING. FROM 2 TO 5 WK O, 0.033, 0.33, 0.66% IN DIET TO PUPS OF PARENTS GIVEN THE SAME DIETARY DOSES FOR 9 WK PRIOR TO MATING. FROM 2 TO 5 WK O",inactive; negative

# Source: PubChem BioAssay AID1259411 (Chemical Carcinogenesis Research Information System (CCRIS), 2018)
